Assay results reported in US20250255992A1, “COXIB-DERIVED CONJUGATE COMPOUNDS AND METHODS OF USE THEREOF” (Reiley Pharmaceuticals, Inc., priority 2020, published 2025).

Columns and labels:
COX-2 = COX-2 (Mus musculus (Mouse), UniProt Q05769); experiment: Cell-based COX-2 assay (PGE2 in LPS/IFN-g stimulated RAW264.7 cells); details: RAW264.7 murine macrophages, LPS + IFN-g, PGE2 readout
Experimental: Cell culture: RAW264.7 murine macrophages are obtained from the Cell Bank of Shanghai Institute of Biochemistry and Cell Biology, Chinese Academy of Sciences (Shanghai, China) and cultured in Dulbecco's modified Eagle's medium containing 100 U/ml penicillin and 100 µg/ml streptomycin at 37° C. in 5% CO2.
The cells are pre-incubated for 30 min with various doses of compounds and stimulated for 7 h with […] LPS and 10 U/ml IFN-g. The cell culture supernatants are collected immediately following treatment and centrifuged at 1,000 rpm for 5 min to remove the particulate matter. PGE2 is determined using a Prostaglandin E2 assay kit (catalog no. 62P2APEB; Cisbio Co.). […] Replace the standard by 10 μL of diluent and PGE2-d2 by 5 μL of reconstitution buffer, Cal0 (for positive control), replace the standard by 10 µL of diluent. Incubate at 4° C. overnight.
(§1) Dose-response curves are generated using XLFit (IDBS, Surrey, UK) or Prism (GraphPad Software, La Jolla, CA, US) to calculate IC50 values for each compound tested.

human COX-2 = human COX-2 (Homo sapiens (Human), UniProt P35354); format: biochemical; details: read-out: COX-2 IC50 (μM) enzyme
ovine COX-1 = ovine COX-1 (Ovis aries (Sheep), UniProt P05979); experiment: COX-1/-2 enzyme assay (EIA kit), COX-1; format: biochemical; details: ovine COX-1 enzyme immunoassay
Experimental: COX-1/-2 enzyme assay: The ability of compounds to inhibit ovine COX-1 and human COX-2 is determined using a commercially available enzyme immunoassay (EIA) kit (catalog no. 701090 (COX-1); 701080 (COX-2) Cayman Chemical Co., Ann Arbor, MI, USA) according to the manufacturer's protocol. COX catalyzes the first step in the biosynthesis of AA to PGH2. PGF2α, produced from PGH2 by reduction with stannous chloride, was measured by EIA (ACE™ competitive EIA, Cayman Chemical, Ann Arbor, MI, USA). Briefly, to a series of supplied reaction buffer solutions [960 μl 0.1 M Tris-HCl (pH 8.0) containing 5 mM EDTA and 2 mM phenol] with either COX-1 or COX-2 (10 μl) enzyme in the presence of heme (10 μl), 10 μl of various concentrations of test drug solutions are added. These solutions are incubated for 15 min at 37° C. and subsequently 10 μl AA solution (100 μM) is added. The COX reaction is stopped by the addition of 30 μl stannous chloride after 2 min, mixed immediately, supernatants are 2000-fold diluted. The produced PGF2α is measured by EIA. This assay is based on the competition between PGs and a PG-acetylcholinesterase conjugate (PG tracer) for a limited amount of PG antiserum. The amount of PG tracer that is able to bind to the PG antiserum is inversely proportional to the concentration of PGs in the wells since the concentration of the PG tracer is held at a constant while the concentration of PGs varies. The specific antiserum-PG complex binds to a mouse anti-rabbit IgG that had been previously attached to the well. The plate is washed to remove any unbound reagents and 200 μl Ellman's reagent (5,5′-dithiobis-(2-nitrobenzoic acid), which contains the substrate to acetylcholine esterase, is added to the well. The product of this enzymatic reaction generates a distinct yellow color that absorbs at 406 nm. The intensity of this color, determined by spectrophotometry, is proportional to the amount of PG tracer bound to the well, which is inversely proportional to the amount of PGs present in the well during the incubation. Percent inhibition is calculated by the comparison of the compounds treated to the various control incubations.
as §1

ovine COX-1, sequence (P05979 25-600 limits assumed): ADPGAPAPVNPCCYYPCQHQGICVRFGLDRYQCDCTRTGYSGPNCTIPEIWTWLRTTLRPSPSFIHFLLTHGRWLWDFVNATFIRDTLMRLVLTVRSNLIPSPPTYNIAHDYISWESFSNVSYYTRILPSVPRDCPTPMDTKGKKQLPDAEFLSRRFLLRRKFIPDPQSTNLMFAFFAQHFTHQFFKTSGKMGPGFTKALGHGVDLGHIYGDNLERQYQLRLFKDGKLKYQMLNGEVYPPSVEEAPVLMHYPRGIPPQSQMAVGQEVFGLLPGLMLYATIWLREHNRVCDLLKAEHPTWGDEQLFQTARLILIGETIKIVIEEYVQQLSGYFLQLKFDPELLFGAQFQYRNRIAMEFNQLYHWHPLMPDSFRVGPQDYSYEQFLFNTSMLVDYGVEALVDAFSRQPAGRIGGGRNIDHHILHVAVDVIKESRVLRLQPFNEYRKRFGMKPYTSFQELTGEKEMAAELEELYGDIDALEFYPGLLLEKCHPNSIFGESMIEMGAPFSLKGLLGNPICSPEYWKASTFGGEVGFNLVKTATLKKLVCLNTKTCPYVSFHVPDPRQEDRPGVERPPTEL
human COX-2, sequence (P35354 18-604 limits assumed): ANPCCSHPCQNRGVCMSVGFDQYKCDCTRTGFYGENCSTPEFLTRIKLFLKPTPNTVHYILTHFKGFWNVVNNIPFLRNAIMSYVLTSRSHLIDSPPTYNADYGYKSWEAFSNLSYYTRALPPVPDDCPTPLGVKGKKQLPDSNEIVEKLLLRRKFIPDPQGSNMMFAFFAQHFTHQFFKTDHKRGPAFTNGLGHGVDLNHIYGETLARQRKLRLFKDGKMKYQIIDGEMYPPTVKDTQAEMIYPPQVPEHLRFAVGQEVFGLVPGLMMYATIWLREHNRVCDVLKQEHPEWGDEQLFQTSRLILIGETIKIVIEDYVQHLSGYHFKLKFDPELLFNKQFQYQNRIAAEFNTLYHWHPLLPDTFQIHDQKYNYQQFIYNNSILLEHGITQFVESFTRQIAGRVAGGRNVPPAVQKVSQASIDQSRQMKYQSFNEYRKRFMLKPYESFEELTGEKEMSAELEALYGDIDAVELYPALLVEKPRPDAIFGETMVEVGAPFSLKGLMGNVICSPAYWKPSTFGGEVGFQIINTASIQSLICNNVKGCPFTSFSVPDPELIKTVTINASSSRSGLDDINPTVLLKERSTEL
COX-2, sequence (Q05769 18-604): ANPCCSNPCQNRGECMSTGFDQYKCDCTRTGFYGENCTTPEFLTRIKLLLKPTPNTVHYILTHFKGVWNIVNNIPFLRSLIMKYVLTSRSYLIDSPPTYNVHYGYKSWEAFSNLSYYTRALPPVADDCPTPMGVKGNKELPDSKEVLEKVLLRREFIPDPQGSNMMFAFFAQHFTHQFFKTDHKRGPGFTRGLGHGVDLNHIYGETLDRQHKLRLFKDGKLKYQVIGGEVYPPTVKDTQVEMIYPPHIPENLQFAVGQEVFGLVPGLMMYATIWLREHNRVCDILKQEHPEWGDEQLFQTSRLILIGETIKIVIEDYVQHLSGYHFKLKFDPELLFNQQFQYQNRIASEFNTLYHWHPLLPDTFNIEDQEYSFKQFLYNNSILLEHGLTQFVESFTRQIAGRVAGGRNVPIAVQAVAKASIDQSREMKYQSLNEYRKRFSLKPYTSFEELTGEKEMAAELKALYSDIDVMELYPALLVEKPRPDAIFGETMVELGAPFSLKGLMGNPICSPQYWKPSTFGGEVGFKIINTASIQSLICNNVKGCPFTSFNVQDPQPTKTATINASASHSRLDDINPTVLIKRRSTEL

Question: Which results are given for `NS(=O)(=O)c1ccc(-n2nc(CCCCCN3CC[S][Re]4(=[O])[S]CC[N]4CC3)cc2-c2ccc(F)cc2)cc1` (stereo not drawn) [Compound 2]?
Answer: IC50 (COX-2): 0.66 µM; IC50 (human COX-2): 1.33 µM

Question: `NS(=O)(=O)c1ccc(-n2nc(CCCCCCCN3CC[S][Re]4(=[O])[S]CC[N]4CC3)cc2-c2ccc(F)cc2)cc1` (stereo not drawn) [Compound 3] was tested. Which IC50 (human COX-2) did it give?
Answer: > 10 µM

Question: With `NS(=O)(=O)c1ccc(-n2nc(CCCCCCCCN3CC[S][Re]4(=[O])[S]CC[N]4CC3)cc2-c2ccc(F)cc2)cc1` (stereo not drawn) [Compound 4] as the molecule, how does the IC50 (COX-2) read?
Answer: 0.32 µM

Question: And the IC50 (human COX-2)?
Answer: 0.59 µM

Question: Which IC50 (COX-2) does the source give for `NS(=O)(=O)c1ccc(-n2nc(CCCCCCCCC[N+]34CC[S][Re]35(=[O])[S]CC[N]5CC4)cc2-c2ccc(F)cc2)cc1` (stereo not drawn) [Compound 5] here?
Answer: 0.15 µM

Question: And the IC50 (human COX-2)?
Answer: 0.13 µM

Question: And the IC50 (ovine COX-1)?
Answer: > 10 µM

Question: Which IC50 (human COX-2) does the source give for `NS(=O)(=O)c1ccc(-n2nc(CCCCCCN3CC[S][Re]4(=[O])[S]CC[N]4CC3)cc2-c2ccc(Cl)cc2)cc1` (stereo not drawn) [Compound 6] here?
Answer: 3.31 µM

Question: Which IC50 (human COX-2) does the source give for `NS(=O)(=O)c1ccc(-n2nc(CCCCCCCN3CC[S][Re]4(=[O])[S]CC[N]4CC3)cc2-c2ccc(Cl)cc2)cc1` (stereo not drawn) [Compound 7] here?
Answer: > 10 µM

Question: How did the IC50 (COX-2) turn out when `NS(=O)(=O)c1ccc(-n2nc(CCCCCCCCC[N+]34CC[S][Re]35(=[O])[S]CC[N]5CC4)cc2-c2ccc(Cl)cc2)cc1` (stereo not drawn) [Compound 8] was run?
Answer: 0.2 µM

Question: And the IC50 (human COX-2)?
Answer: 0.19 µM

Question: Which results are given for `NS(=O)(=O)c1ccc(-n2nc(CCCCCCCCN3CC[S][Re]4(=[O])[S]CC[N]4CC3)cc2-c2ccc(Cl)cc2)cc1` (stereo not drawn) [Compound 9]?
Answer: IC50 (COX-2): 0.19 µM; IC50 (human COX-2): 0.11 µM

Question: For `COc1ccc(-c2cc(CCCCCCCCC[N+]34CC[S][Re]35(=[O])[S]CC[N]5CC4)nn2-c2ccc(S(N)(=O)=O)cc2)cc1` (stereo not drawn) [Compound 10], which IC50 (COX-2) is on record?
Answer: 0.16 µM

Question: And the IC50 (human COX-2)?
Answer: 0.06 µM

Question: And the IC50 (ovine COX-1)?
Answer: > 10 µM

Question: Which results are given for `Cc1ccc(-c2cc(CCCCCCCCCN3CC[S][Re]4(=[O])[S]CC[N]4CC3)nn2-c2ccc(S(N)(=O)=O)cc2)cc1` (stereo not drawn) [Compound 11]?
Answer: IC50 (COX-2): 0.2 µM; IC50 (human COX-2): 4.49 µM

Question: How did the IC50 (human COX-2) turn out when `NS(=O)(=O)c1ccc(-n2nc(COCCCCCC[N+]34CC[S][Re]35(=[O])[S]CC[N]5CC4)cc2-c2ccc(F)cc2)cc1` (stereo not drawn) [Compound 14] was run?
Answer: 2.36 µM

Question: `NS(=O)(=O)c1ccc(-n2nc(COCCCC[N+]34CC[S][Re]35(=[O])[S]CC[N]5CC4)cc2-c2ccc(F)cc2)cc1` (stereo not drawn) [Compound 15] was tested. Which IC50 (human COX-2) did it give?
Answer: 2.37 µM

Question: What does the source list for `NS(=O)(=O)c1ccc(-n2nc(COCCCCCCC[N+]34CC[S][Re]35(=[O])[S]CC[N]5CC4)cc2-c2ccc(F)cc2)cc1` (stereo not drawn) [Compound 16]?
Answer: IC50 (COX-2): 0.21 µM; IC50 (human COX-2): 0.31 µM; IC50 (ovine COX-1): > 10 µM

Question: `NS(=O)(=O)c1ccc(-n2nc(COCCCOCCCN3CC[S][Re]4(=[O])[S]CC[N]4CC3)cc2-c2ccc(F)cc2)cc1` (stereo not drawn) [Compound 17] was tested. Which IC50 (human COX-2) did it give?
Answer: 4.15 µM

Question: How did the IC50 (human COX-2) turn out when `NS(=O)(=O)c1ccc(-n2nc(COCCCCCCN3CC[S][Re]4(=[O])[S]CC[N]4CC3)cc2-c2ccc(Cl)cc2)cc1` (stereo not drawn) [Compound 18] was run?
Answer: > 10 µM

Question: How did the IC50 (human COX-2) turn out when `COc1ccc(-c2cc(COCCCCCCN3CC[S][Re]4(=[O])[S]CC[N]4CC3)nn2-c2ccc(S(N)(=O)=O)cc2)cc1` (stereo not drawn) [Compound 19] was run?
Answer: 4.51 µM

Question: With `COc1ccc(-c2cc(COCCCCCCCN3CC[S][Re]4(=[O])[S]CC[N]4CC3)nn2-c2ccc(S(N)(=O)=O)cc2)cc1` (stereo not drawn) [Compound 20] as the molecule, how does the IC50 (COX-2) read?
Answer: 0.22 µM

Question: What about the IC50 (human COX-2) of the same molecule?
Answer: 0.54 µM

Question: `Cc1ccc(-c2cc(COCCCCCCC[N+]34CC[S][Re]35(=[O])[S]CC[N]5CC4)nn2-c2ccc(S(N)(=O)=O)cc2)cc1` (stereo not drawn) [Compound 21] was tested. Which IC50 (COX-2) did it give?
Answer: 0.15 µM

Question: And the IC50 (human COX-2)?
Answer: 2.48 µM

Question: For `NS(=O)(=O)c1ccc(-c2c(-c3ccccc3)noc2CCCCCC[N+]23CC[S][Re]24(=[O])[S]CC[N]4CC3)cc1` (stereo not drawn) [Compound 26], which IC50 (COX-2) is on record?
Answer: 0.23 µM

Question: What about the IC50 (human COX-2) of the same molecule?
Answer: 0.16 µM

Question: What does the source list for `NS(=O)(=O)c1ccc(-c2c(-c3ccccc3)noc2CCCCCCC[N+]23CC[S][Re]24(=[O])[S]CC[N]4CC3)cc1` (stereo not drawn) [Compound 27]?
Answer: IC50 (COX-2): 0.07 µM; IC50 (human COX-2): 0.07 µM; IC50 (ovine COX-1): > 10 µM

Question: What does the source list for `NS(=O)(=O)c1ccc(-c2c(-c3ccccc3)noc2CCCCCCCCC[N+]23CC[S][Re]24(=[O])[S]CC[N]4CC3)cc1` (stereo not drawn) [Compound 28]?
Answer: IC50 (COX-2): 0.025 µM; IC50 (human COX-2): 0.019 µM; IC50 (ovine COX-1): > 10 µM
